Measured values: US20210345611A1, “EXTENDED AND CONTINUOUS RELEASE COMPOSITIONS FOR PLANT HEALTH AND METHOD OF USE” (Verdesian Life Sciences U.S., LLC, priority 2018, published 2021)

Experiment: PGA stability in 250 mM sodium phosphate aqueous buffers (HPLC)
Type: physicochemical
Experimental: Analytical note: PGA measurements in this section are done on a free acid basis using HPLC techniques, with PGA peak in each analysis checked for purity using UV-Vis spectroscopy technique by comparison with a known standard reference material. Experiments were conducted to determine the relative stability of PGA to degradation in 250 mM sodium phosphate aqueous buffers at pH levels of interest representing pH levels commonly found in soils. PGA is sufficiently stable at the pH levels of interest. PGA/pH 5.75 L-Pyroglutamic acid was dissolved to a concentration of about 1.0% in 250 mM sodium phosphate aqueous buffer at pH of 5.75, and stored for 24 hours at 50 degrees C. […] PGA/pH 6.75 L-Pyroglutamic acid was dissolved to a concentration of about 1.0% in 250 mM sodium phosphate aqueous buffer at pH of 6.75, and stored for 24 hours at 50 degrees C. […] PGA/pH 7.75 L-Pyroglutamic acid was dissolved to a concentration of about 1.0% in 250 mM sodium phosphate aqueous buffer at pH of 7.75, and stored for 24 hours at 50 degrees C.

Measured: decomposition by HPLC analysis

O=C1CC[C@@H](C(=O)O)N1 [L-Pyroglutamic acid]
No detectable decomposition: about 1.0% in 250 mM sodium phosphate buffer pH 5.75, 24 hours at 50 degrees C | about 1.0% in 250 mM sodium phosphate buffer pH 6.75, 24 hours at 50 degrees C | about 1.0% in 250 mM sodium phosphate buffer pH 7.75, 24 hours at 50 degrees C
